In paper PMC5770336, “Characterisation of endogenous A2A and A2B receptor-mediated cyclic AMP responses in HEK 293 cells using the GloSensor™ biosensor: Evidence for an allosteric mechanism of action for the A2B-selective antagonist PSB 603” (Biochemical Pharmacology, 2018):
Where “and” joins values, the source holds several entries; their conditions need not be identical. Identical values can stand only once. Entries after “also recorded” stand apart in the source; their conditions may differ. Like-named read-outs stand apart in the source and are kept apart here.

What was measured:
A2BAR [1] = biological target: T1, A2BAR (Homo sapiens, UniProt P29275); assay: GloSensor cAMP luminescence assay in HEK293G cells, endogenous A2BAR-mediated responses (NECA, adenosine, BAY 60-6583); format: cell-based; conditions: for inhibition of the response to 10 µM NECA (in words) / IC50 / pIC50: 30 min pre-incubation; for inhibition of the response to 10 µM NECA (in words): antagonist up to 10 µM; for mode of antagonism (in words): agonist concentration-response curves with increasing antagonist; for antagonism of the response to BAY 60-6583 (in words): 1 μM BAY 60-6583; for -Log KB / Kb: apparent KB, modified Gaddum equation
T1 construct: Gs-coupled A2BARs endogenously expressed in HEK293 cells; host or cells: HEK293G (HEK293 stably expressing the GloSensor 20F cAMP biosensor)
T1 sequence (P29275 1-332): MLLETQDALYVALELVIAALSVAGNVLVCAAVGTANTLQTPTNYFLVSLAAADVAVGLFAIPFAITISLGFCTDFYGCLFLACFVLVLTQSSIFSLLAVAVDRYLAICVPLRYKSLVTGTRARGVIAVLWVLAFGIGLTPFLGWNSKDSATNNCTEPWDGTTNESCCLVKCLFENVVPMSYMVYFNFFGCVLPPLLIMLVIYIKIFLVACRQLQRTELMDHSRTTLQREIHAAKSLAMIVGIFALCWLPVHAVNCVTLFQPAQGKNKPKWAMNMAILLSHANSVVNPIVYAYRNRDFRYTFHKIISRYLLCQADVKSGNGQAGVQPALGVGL
Experimental: (§1) The cAMP GloSensor™ (20F) biosensor [26] expressed in HEK293 (HEK293G) cells was obtained from Promega (Madison, WI). HEK293G cells were maintained in Dulbecco modified eagles medium (DMEM) supplemented with 2 mM L-glutamine, 10% FCS (fetal calf serum) and 200 μg/ml hygromycin B at 37 °C 5% CO2. […] For the GloSensor™ assay, cells were re-suspended in DMEM supplemented with 2 mM L-glutamine and 10% FCS and seeded at a density of 35000 cells/well on poly-l-lysine treated clear bottomed white walled 96 well plates. Cells were incubated at 37°C 5% CO2 overnight prior to assay.
(§2) The GloSensor™ assay was carried out as per manufacturer’s instructions (Promega, Madison, WI, USA). […] Agonist concentration response curves were simultaneously obtained (in the absence of antagonist).

A2AAR [2] = biological target: T2, A2AAR (Homo sapiens, UniProt P29274); assay: GloSensor cAMP luminescence assay in HEK293G cells, endogenous A2AAR-mediated responses (CGS 21680); format: cell-based
T2 construct: We also provide evidence for a minor population of endogenous A2AAR in this cell line; host or cells: HEK293G (HEK293 stably expressing the GloSensor 20F cAMP biosensor)
Experimental: as §1, §2

adenylyl cyclase = assay: Forskolin-stimulated GloSensor cAMP luminescence in HEK293G cells; format: cell-based, human; conditions: forskolin concentration-response curves, PSB 603 up to 300 nM
Experimental: The cAMP GloSensor™ (20F) biosensor [26] expressed in HEK293 (HEK293G) cells was obtained from Promega (Madison, WI). HEK293G cells were maintained in Dulbecco modified eagles medium (DMEM) supplemented with 2 mM L-glutamine, 10% FCS (fetal calf serum) and 200 μg/ml hygromycin B at 37 °C 5% CO2. Once confluent, cells were dislodged from the flask surface by gentle shaking after incubation in 0.25% trypsin and cell pellet formed following 5 min 1000 g centrifugation. For the GloSensor™ assay, cells were re-suspended in DMEM supplemented with 2 mM L-glutamine and 10% FCS and seeded at a density of 35000 cells/well on poly-l-lysine treated clear bottomed white walled 96 well plates. Cells were incubated at 37°C 5% CO2 overnight prior to assay.
The GloSensor™ assay was carried out as per manufacturer’s instructions (Promega, Madison, WI, USA).

A2AAR [3] = conditions: cited from earlier work
A2BAR [4] = conditions: cited from earlier work
[5] = antagonism of BAY 60-6583 (1 µM) response, HEK293G
[6] = antagonism of NECA (10 µM) response, HEK293G
[7] = antagonism of adenosine (10 µM) response, HEK293G

T2 sequence (P29274 whole entry): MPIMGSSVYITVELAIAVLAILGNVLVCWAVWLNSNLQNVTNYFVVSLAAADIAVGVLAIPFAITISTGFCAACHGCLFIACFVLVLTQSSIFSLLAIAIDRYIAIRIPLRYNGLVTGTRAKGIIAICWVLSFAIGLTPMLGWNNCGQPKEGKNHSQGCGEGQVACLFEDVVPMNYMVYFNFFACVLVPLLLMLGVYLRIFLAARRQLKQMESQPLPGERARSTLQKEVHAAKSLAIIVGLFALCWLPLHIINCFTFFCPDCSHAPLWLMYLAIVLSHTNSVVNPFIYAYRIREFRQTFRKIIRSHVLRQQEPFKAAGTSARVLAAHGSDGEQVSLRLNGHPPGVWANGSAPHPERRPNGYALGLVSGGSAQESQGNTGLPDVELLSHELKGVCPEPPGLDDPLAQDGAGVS

Nc1nc(NCCc2ccc(O)cc2)nc2nc(-c3ccco3)nn12 [ZM 241385, 4-(2-[7-Amino-2-(2-furyl)[1,2,4]triazolo[2,3-a][1,3,5]triazin-5-ylamino]ethyl)phenol]
inhibition of the response to 10 µM NECA (in words) (A2BAR [1]): complete inhibition
mode of antagonism (in words) (A2BAR [1]): competitive interaction

N#Cc1c(N)nc(SCC(N)=O)c(C#N)c1-c1ccc(OCC2CC2)cc1 [BAY 60-6583, 2-[[6-Amino-3,5-dicyano-4-[4-(cyclopropylmethoxy)phenyl]-2-pyridinyl]thio]-acetamide]
EC50 (A2BAR [1]; BAY 60-6583 pEC50, PSB 603 0 nM): 407 nM
EC50 (A2BAR [1]; BAY 60-6583 pEC50, PSB 603 30 nM): 1580 nM
EC50 (A2BAR [1]; BAY 60-6583 pEC50, PSB 603 100 nM): 4570 nM
EC50 (A2BAR [1]; BAY 60-6583 pEC50, PSB 603 300 nM): > 30000 nM
EC50 (A2BAR [1]; BAY 60-6583 pEC50, XAC 0 nM): 380 nM
EC50 (A2BAR [1]; BAY 60-6583 pEC50, XAC 100 nM): 1320 nM
EC50 (A2BAR [1]; BAY 60-6583 pEC50, XAC 300 nM): 2240 nM
EC50 (A2BAR [1]; BAY 60-6583 pEC50, XAC 1000 nM): 9330 nM
EC50 (A2BAR [1]; BAY 60-6583 pEC50, ZM 241385 0 nM): 347 nM
EC50 (A2BAR [1]; BAY 60-6583 pEC50, ZM 241385 100 nM): 1410 nM
EC50 (A2BAR [1]; BAY 60-6583 pEC50, ZM 241385 300 nM): 2140 nM
EC50 (A2BAR [1]; BAY 60-6583 pEC50, ZM 241385 1000 nM): 7240 nM
Emax at 0.03 µM (A2BAR [1]; HEK293G, read-out: BAY 60-6583 Emax, PSB 603 30 nM, percentage of response to 10 µM BAY 60-6583): 82.2 ± 1.64%
Emax at 0.1 µM (A2BAR [1]; HEK293G, read-out: BAY 60-6583 Emax, PSB 603 100 nM, percentage of response to 10 µM BAY 60-6583): 68.7 ± 6.78%
Emax at 0.3 µM (A2BAR [1]; HEK293G, read-out: BAY 60-6583 Emax, PSB 603 300 nM, percentage of response to 10 µM BAY 60-6583): 99.3 ± 26.6%
Emax (A2BAR [1]; HEK293G, read-out: BAY 60-6583 Emax, XAC 0 nM, percentage of response to 10 μM BAY 60-6583): 104 ± 5.27%
Emax (A2BAR [1]; HEK293G, read-out: BAY 60-6583 Emax, XAC 100 nM, percentage of response to 10 μM BAY 60-6583): 96.6 ± 4.8%
Emax (A2BAR [1]; HEK293G, read-out: BAY 60-6583 Emax, XAC 300 nM, percentage of response to 10 μM BAY 60-6583): 85.6 ± 5.04%
Emax (A2BAR [1]; HEK293G, read-out: BAY 60-6583 Emax, XAC 1000 nM, percentage of response to 10 μM BAY 60-6583): 55.9 ± 7.86%
Emax at 0.1 µM (A2BAR [1]; HEK293G, read-out: BAY 60-6583 Emax, ZM 241385 100 nM, percentage of response to 10 μM BAY 60-6583): 99 ± 7.14%
Emax at 0.3 µM (A2BAR [1]; HEK293G, read-out: BAY 60-6583 Emax, ZM 241385 300 nM, percentage of response to 10 μM BAY 60-6583): 80.8 ± 8.36%
Emax at 1 µM (A2BAR [1]; HEK293G, read-out: BAY 60-6583 Emax, ZM 241385 1000 nM, percentage of response to 10 μM BAY 60-6583): 54.1 ± 8.41%
BAY 60-6583 Emax (A2BAR [1]; PSB 603 0 nM, percentage of response to 10 µM BAY 60-6583): 104.40 ± 5.14%
BAY 60-6583 Emax (A2BAR [1]; ZM 241385 0 nM, percentage of response to 10 μM BAY 60-6583): 100.80 ± 4.61%
EC50 (A2BAR [1]; agonist pEC50, cAMP Glosensor luminescence, peak luminescence, HEK 293 cells, no antagonist (Fig. 4)): 646 nM
agonist efficacy (in words) (A2BAR [1]; relative to adenosine and NECA, HEK293G): partial agonist

CCCn1c(=O)[nH]c2nc(-c3ccc(S(=O)(=O)N4CCN(c5ccc(Cl)cc5)CC4)cc3)[nH]c2c1=O [PSB 603]
antagonism of the response to BAY 60-6583 (in words) (A2BAR [1]): completely abolish the response
maximal inhibition of the NECA response (A2BAR [1]; 10 µM NECA, % of the maximal response to NECA): 81.7 ± 2.4% and 80%
inhibition of the response to 10 µM adenosine (A2BAR [1]; 10 µM antagonist): 80.5 ± 3.0% and 80%
mode of antagonism (in words) (A2BAR [1]): non-competitive antagonism
IC50 (A2BAR [1]; [5]): 17.4 nM
pIC50 (A2BAR [1]; [5]): 7.86 ± 0.13
IC50 (A2BAR [1]; [6]): 49.8 nM
pIC50 (A2BAR [1]; [6]): 7.53 ± 0.22
IC50 (A2BAR [1]; [7]): 141 nM
pIC50 (A2BAR [1]; [7]): 7.56 ± 0.43
-Log KB (A2BAR [1]; agonist BAY 60-6583 (1 µM)): 8.55 ± 0.13
Kb (A2BAR [1]; agonist BAY 60-6583 (1 µM)): 3.6 nM
-Log KB (A2BAR [1]; agonist NECA (10 µM)): 8.50 ± 0.22
Kb (A2BAR [1]; agonist NECA (10 µM)): 5.3 nM
-Log KB (A2BAR [1]; agonist adenosine (10 µM)): 7.89 ± 0.43
Kb (A2BAR [1]; agonist adenosine (10 µM)): 66.3 nM
residual peak response to NECA (A2BAR [1]; limiting level of antagonism, kinetic profile, 10 μM NECA): circa 20%
antagonism of the CGS 21680 response (in words) (A2AAR [2]; 1 μM CGS 21680, competition curves): unable to inhibit; also recorded: not affected
effect of pre-incubation on CGS 21680 concentration-response curves (in words) (A2AAR [2]; PSB 603 up to 300 nM): did not affect; also recorded: completely unaffected
effect of pre-incubation on the response to forskolin (in words) (adenylyl cyclase): did not affect; also recorded: completely unaffected
Ki (A2AAR [3]): > 10000 nM
Ki (A2BAR [4]): 0.5 nM

Nc1nc2c(cnn2CCc2ccccc2)c2nc(-c3ccco3)nn12 [SCH 58261, 2-(2-Furanyl)-7-(2-phenylethyl)-7H-pyrazolo [4,3-e][1,2,4] triazolo[1,5-c]pyrimidin-5-amine]
antagonism of the response to BAY 60-6583 (in words) (A2BAR [1]): weak antagonist
inhibition of the response to 10 µM NECA (in words) (A2BAR [1]): failed to inhibit
inhibition of the adenosine response (A2BAR [1]; highest concentration tested, not statistically significant): approximately 35%
antagonism of the CGS 21680 response (in words) (A2AAR [2]): complete concentration-dependent antagonism
Ki (A2BAR [4]): 5010 nM
